# In patent US11542316B2, “S-Arrestin peptides and therapeutic uses thereof” (APITOPE INTERNATIONAL NV, priority 2017, dated 2023):
# Ends that are not written are not given here.
# Legend:
# [1] = tested on: SAg-specific hybridoma cells / T cell line with VAVY APC; assay: Antigen Processing Independent Presentation System (APIPS) assay, fresh or fixed VAVY APC; assay type: cell-based, DR3 mice; conditions: DR3 hybridoma clone (IL-2, 48 h) or T cell line (IFN-γ, 24 h)
# Description: (§1) FIG. 2: identification of apitopes within HIP-115. (A) DR3 mice were immunized with SAg and hybridomas were generated. 5×10^4 SAg-specific hybridoma cells were cultured with 5×10^4 fresh or fixed commercial APC (VAVY) cells. T cell proliferation was measured by IL-2 ELISA on supernatants collected after 48 h. The graph represents the mean of duplicate measurements±SEM. (B) DR3 mice were immunized with HIP-115 and a T cell line was established. Ten days after immunization the LN and spleens were harvested and cultured with different concentrations of peptide (0.1-1-2.5 and 5 μg/ml); 2×10^6 cells/ml APC+1×10^6 cells/ml CD4 T cells per well. At day 7 the cells were re-stimulated with the same concentrations of peptide. On day 14 an APIPS test was done using commercial APC (VAVY). After 24 h, antigen-induced T cell activation was measured by IFN-γ ELISA and shown as IFN-γ concentration (pg/ml). The graph represents the mean of duplicate measurements±SEM. LN, lymph nodes; APC, Antigen presenting cell; APIPS, Antigen Processing Independent Presentation System.
# as §1, with “3:” for “2:”, “HIP-241125.” for “HIP-115.”, “HIP-241125+HIP-24DG” for “HIP-115”
# (§2) FIG. 5: Identification of apitopes within HIP-17GN. DR3 mice were immunized with HIP-17GN and a T cell line was established. Ten days after immunization the LN and spleens were harvested and cultured with different concentrations of peptide (0.1-1-2.5 and 5 μg/ml); 2×10^6 cells/ml APC+1×10^6 cells/ml CD4 T cells per well. At day 7 the cells were re-stimulated with the same concentrations of peptide. On day 14 an APIPS test was done using commercial APC (VAVY). After 24 h, antigen-induced T cell activation was measured by IFN-γ ELISA and shown as OD values. The graph represents the mean of triplicate measurements±SEM. LN, lymph nodes; APC, Antigen presenting cell; APIPS, Antigen Processing Independent Presentation System.
# as §2, with “6:” for “5:”, “HIP-12AK.” for “HIP-17GN.”, “HIP-12AK” for “HIP-17GN”, “IFN-γ concentration (pg/ml).” for “OD values.”, “duplicate” for “triplicate”
# Antigen-specific clones or TCL were tested for their reactivity to the peptides, presented by fixed or not fixed (fresh) cells (VAVY or MGAR) (=APCs). 5×10^4 cells from the individual clones were cultured with 10 μg/ml peptide and 5×10^4 fixed or fresh APCs. […]
# [2] = tested on: LN cells and splenocytes upon SAg or peptide restimulation; assay: Ex vivo tolerization experiment, DR3tg mice; assay type: in vivo; conditions: DR3 mice, IFN-γ; for tolerization against SAg: escalating dose regime s.c.
# Description: (§3) FIG. 7: Ex vivo tolerisation protocol. Mice are injected subcutaneously in the flank with 0.1 μg/ml, 1 μg/ml and 10 μg/ml peptide on days −15, −13 and −11, followed by 3 injections of 100 μg/ml on days −8, −6 and −4 (escalating dose regime). On day 0, mice are immunized subcutaneously at the base of the tail with SAg/CFA or peptide/CFA. Mice are sacrificed 10 days after immunization to measure proliferation of LN cells and splenocytes upon SAg or peptide restimulation. LN, lymph nodes.
# FIG. 8: Ex vivo tolerance induction by HIP-115NE3-KKK apitope. DR3 mice are injected subcutaneously in the flank with 0.1 μg/ml, 1 μg/ml and 10 μg/ml HIP-115NE3-KKK on days −15, −13 and −11, followed by 3 injections of 100 μg/ml on days −8, −6 and −4 (escalating dose regime). On day 0, mice are immunized subcutaneously at the base of the tail with HIP-115/CFA. Mice are sacrificed 10 days after immunization to measure proliferation of LN cells and splenocytes upon SAg or peptide restimulation. Data represent mean±SEM of the concentration or OD values for the PBS-treated mice (black lines) and peptide-treated mice (color lines). Two-way ANOVA was used to measure overall treatment effects on T cell activation and p-values are written in the graphs. Bonferonni post-hoc testing was used and significant differences are indicated in the graphs (* p<0.05; **** p<0.0001). LN, lymph nodes. (A) Tolerisation against SAg in LN. IFN-γ production expressed as IFN-γ concentration (pg/ml). (B) Tolerisation against SAg in spleen. IFN-γ production expressed as IFN-γ concentration (pg/ml). (C) Tolerisation against HIP-115 and HIP-115NE3 peptides in LN. IFN-γ production expressed as OD values. (D) Tolerisation against HIP-115 and HIP-115NE3 peptides in spleen. IFN-γ production expressed as OD values.
# FIG. 9: Ex vivo tolerance induction by HIP-11B apitope. DR3 mice are injected subcutaneously in the flank with 0.1 μg/ml, 1 μg/ml and 10 μg/ml HIP-11B on days −15, −13 and −11, followed by 3 injections of 100 μg/ml on days −8, −6 and −4 (escalating dose regime). On day 0, mice are immunized subcutaneously at the base of the tail with HIP-11B/CFA. Mice are sacrificed 10 days after immunization to measure proliferation of LN cells and splenocytes upon SAg or peptide restimulation. Data represent mean±SEM of the concentration values for the PBS-treated mice (black lines) and peptide-treated mice (color lines). IFN-γ production expressed as IFN-γ concentration (pg/ml). Two-way ANOVA was used to measure overall treatment effects on T cell activation and p-values are written in the graphs. Bonferonni post-hoc testing was used and significant differences are indicated in the graphs (* p<0.05; **** p<0.0001). LN, lymph nodes. (A) Tolerisation against SAg in LN. (B) Tolerisation against SAg in spleen. (C) Tolerisation against HIP-11B peptide in LN. (D) Tolerisation against HIP-11B peptide in spleen.
# FIG. 10: Ex vivo tolerance induction by HIP-24DG apitope. DR3 mice are injected subcutaneously in the flank with 0.1 μg/ml, 1 μg/ml and 10 μg/ml HIP-24DG on days −15, −13 and −11, followed by 3 injections of 100 μg/ml on days −8, −6 and −4 (escalating dose regime). On day 0, mice are immunized subcutaneously at the base of the tail with HIP-24DG+HIP-24HM/CFA. Mice are sacrificed 10 days after immunization to measure proliferation of LN cells and splenocytes upon SAg or peptide restimulation. Data represent mean±SEM of the OD values for the PBS-treated mice (black lines) and peptide-treated mice (color lines). IFN-γ production expressed as OD values. LN, lymph nodes. Two-way ANOVA was used to measure overall treatment effects on T cell activation and p-values are written in the graphs. Bonferonni post-hoc testing was used and significant differences are indicated in the graphs (* p<0.05; ** p<0.01; *** p<0.001: **** p<0.0001). LN, lymph nodes. (A) Tolerisation against SAg in LN. (B) Tolerisation against HIP-24DG in LN. (C) Tolerisation against HIP-24HM2 peptide in LN. […]
# [3] = Solubility of peptides; assay type: physicochemical
# Description: The solubility of potential apitopes from S—Ag are determined by visual observations and turbidity measurement by UV spectrophotometry at 280 nm. The solubility of the peptides can be modified by adding amino acids ‘GKK’ or ‘KKK’ (or similar) on both the C- and N-terminus of the sequence. Modifications that may be suitable are described in WO2014/072958 (which is hereby incorporated by reference).
# For some of these peptides, the parental peptides were insoluble, and solubility is a critical parameter for them to work as a tolerogenic peptide. Several end-terminal modifications can be used and as example used here they were improved by addition of 3 lysines before and after the original peptide sequence (labelled as ‘-KKK’ versions).
# [4] = tested on: LN cells and splenocytes upon SAg or peptide restimulation; assay: Ex vivo tolerization experiment, DR2tg mice; assay type: in vivo; conditions: DR2 mice, IFN-γ
# Description: as §3
# FIG. 11: Ex vivo tolerance induction by HIP-9K1-KKK apitope. DR2 mice are injected subcutaneously in the flank with 0.1 μg/ml, 1 μg/ml and 10 μg/ml HIP-9K1-KKK on days −15, −13 and −11, followed by 3 injections of 100 μg/ml on days −8, −6 and −4 (escalating dose regime). On day 0, mice are immunized subcutaneously at the base of the tail with HIP-9FL/CFA. Mice are sacrificed 10 days after immunization to measure proliferation of LN cells and splenocytes upon SAg or peptide restimulation. Data represent mean±SEM of the concentration values for the PBS-treated mice (black lines) and peptide-treated mice (color lines). IFN-γ production expressed as IFN-γ concentration (pg/ml). Two-way ANOVA was used to measure overall treatment effects on T cell activation and p-values are written in the graphs. Bonferonni post-hoc testing was used and significant differences are indicated in the graphs (* p<0.05; **** p<0.0001). LN, lymph nodes. (A) Tolerisation against SAg in LN. (B) Tolerisation against HIP-9FL and HIP-9K1-KKK in LN. (C) Tolerisation against SAg in spleen. (D) Tolerisation against HIP-9FL and HIP-9K1-KKK in spleen.
# FIG. 13: Ex vivo tolerance induction by HIP-12G1-KKK apitope. DR2 mice are injected subcutaneously in the flank with 0.1 μg/ml, 1 μg/ml and 10 μg/ml HIP-12G1-KKK on days −15, −13 and −11, followed by 3 injections of 100 μg/ml on days −8, −6 and −4 (escalating dose regime). On day 0, mice are immunized subcutaneously at the base of the tail with HIP-12AK/CFA. Mice are sacrificed 10 days after immunization to measure proliferation of LN cells and splenocytes upon SAg or peptide restimulation. Data represent mean±SEM of the concentration values for the PBS-treated mice (black lines) and peptide-treated mice (color lines). IFN-γ production expressed as IFN-γ concentration (pg/ml). Two-way ANOVA was used to measure overall treatment effects on T cell activation and p-values are written in the graphs. Bonferonni post-hoc testing was used and significant differences are indicated in the graphs (** p<0.01; *** p<0.001: **** p<0.0001). LN, lymph nodes. (A) Tolerisation against HIP-12G1-KKK and HIP-12G1 in LN. (B) Tolerisation against HIP-12G1-KKK in spleen.
# DR3tg or DR2tg mice were injected subcutaneously in the flank region with 0.1 μg, 1 μg and 10 μg of peptide on days −15, −13 and −11 respectively, followed by 3 injections of 100 μg peptide on days −8, −6 and −4 (dose escalation schedule). On day 0, the mice were immunised subcutaneously in the base of the tail with 50 μg antigen (parental peptide) emulsified in CFA (peptide/CFA). Ten days after immunisation, draining lymph nodes (LN) and spleens were harvested. LN cells and splenocytes were isolated and cultured in X-vivo 15 medium (supplemented with 2 mM L-glutamine, 50 U/mL penicillin and 50 U/mL streptomycin; Lonza) in 96-well flat bottom plates. To investigate antigen-induced cell proliferation, 0.5×10^6 cells/well were cultured (200 μl/well) for 72 hours with different antigen concentrations (0-25 μg/ml) or with 12.5 μg/ml purified protein derivative (PPD; priming control; Statens serum institut, Copenhagen, Denmark). After 72 hours, supernatant was harvested and stored at −80° C. until further analysis. IFN-γ concentrations in supernatants were assessed by cytokine ELISA (R&D Systems, Abingdon, UK) to measure cell activation.
Substance,behaves as apitope (response to peptide presented by fresh or fixed APC) [1],tolerization against SAg ([2]; spleen),tolerization against the peptide itself / peptides of the same region ([2]; LN),tolerization against SAg ([2]; LN),tolerization against the peptide itself ([2]; spleen),solubility [3],tolerization against the peptide itself / parental peptide ([4]; LN),tolerization against the peptide itself ([4]; spleen)
KKKVIGLTFRRDLYFSRVQVYPPVGKKK-NH2 [HIP-17GN-KKK],behave as apitopes,tolerization induced,–,–,–,–,–,–
"RERRGIALDGKIKHE-NH2 [HIP-11B, RERRGIALDGKIKHE]",behave as apitopes,tolerization induced,tolerization induced,tolerization induced,tolerization induced,–,–,–
"PLLANNRERRGI-NH2 [HIP-24HM2, PLLANNRERRGI]",behave as apitopes,–,–,–,–,soluble,–,–
"KKKGILVSYQIKVKKKK-NH2 [HIP-12G1-KKK, KKKGILVSYQIKVKKKK]",behave as apitopes,–,–,–,–,–,tolerization induced,tolerization induced
